Experiments:
[1] = Liver microsomes study, Phase I stability (RLM); type: in vitro ADME, rat; settings: pH 7.4
Experimental: (§1) Commercially available liver microsomes (MsLM vendor: XENOTECH; RLM, DLM, MkL, HLM vendor: Corning) were used for study the Phase I stability of test articles. […] The reaction was initiated by addition of 80 μL of the NADPH regenerating system to 320 µL of each incubation mixture per time point. […] The 0-minute samples were prepared by addition of an 80 μL aliquot of each incubation mixture to 400 μL quench reagent to precipitate proteins. And then a 20 μL aliquot of the NADPH regenerating system was added. At 10, 30, and 90 minutes, the reaction will be stopped by the addition of cold acetonitrile solution containing tolbutamide and propanolol served as internal standard. The samples taken at all time points were centrifuged at 4000×g for 15 minutes. 80 μL of supernatant are taken into 96-well assay plates pre-added with 160 μL ultrapure water, and then analyzed by LC/MS/MS(Shimadzu LC30AD & API4000/API5000)). Concentrations of test articles, control compounds in the samples were determined by using LC/MS/MS) method. Plotting of the chromatograms and peak area integrations are carried out by Analyst (AB Sciex).
(§2) In the determination of the in vitro elimination constant, ke, of the control compounds, the analyte/internal standard peak area ratios will be converted to percentage remaining (% Remaining) with the following equation: […]
(§3) The slope was measured by the natural logarithm of the percentage of the residual compound and time, T½ and CLint were calculated according to the following formulas, V/M was equal to the 1/concentration of protein.

[2] = biological target: T1, JAK2V617F (Homo sapiens, UniProt O60674, V617F); test: JAK2V617F microfluidic kinase assay (Caliper EZ Reader II, FAM labeled peptide substrate); type: biochemical; settings: JAK2V617F 2.5 nM, 1 mM ATP
T1 construct: purchased Carna Biosciences
T1 sequence (O60674 whole entry V617F): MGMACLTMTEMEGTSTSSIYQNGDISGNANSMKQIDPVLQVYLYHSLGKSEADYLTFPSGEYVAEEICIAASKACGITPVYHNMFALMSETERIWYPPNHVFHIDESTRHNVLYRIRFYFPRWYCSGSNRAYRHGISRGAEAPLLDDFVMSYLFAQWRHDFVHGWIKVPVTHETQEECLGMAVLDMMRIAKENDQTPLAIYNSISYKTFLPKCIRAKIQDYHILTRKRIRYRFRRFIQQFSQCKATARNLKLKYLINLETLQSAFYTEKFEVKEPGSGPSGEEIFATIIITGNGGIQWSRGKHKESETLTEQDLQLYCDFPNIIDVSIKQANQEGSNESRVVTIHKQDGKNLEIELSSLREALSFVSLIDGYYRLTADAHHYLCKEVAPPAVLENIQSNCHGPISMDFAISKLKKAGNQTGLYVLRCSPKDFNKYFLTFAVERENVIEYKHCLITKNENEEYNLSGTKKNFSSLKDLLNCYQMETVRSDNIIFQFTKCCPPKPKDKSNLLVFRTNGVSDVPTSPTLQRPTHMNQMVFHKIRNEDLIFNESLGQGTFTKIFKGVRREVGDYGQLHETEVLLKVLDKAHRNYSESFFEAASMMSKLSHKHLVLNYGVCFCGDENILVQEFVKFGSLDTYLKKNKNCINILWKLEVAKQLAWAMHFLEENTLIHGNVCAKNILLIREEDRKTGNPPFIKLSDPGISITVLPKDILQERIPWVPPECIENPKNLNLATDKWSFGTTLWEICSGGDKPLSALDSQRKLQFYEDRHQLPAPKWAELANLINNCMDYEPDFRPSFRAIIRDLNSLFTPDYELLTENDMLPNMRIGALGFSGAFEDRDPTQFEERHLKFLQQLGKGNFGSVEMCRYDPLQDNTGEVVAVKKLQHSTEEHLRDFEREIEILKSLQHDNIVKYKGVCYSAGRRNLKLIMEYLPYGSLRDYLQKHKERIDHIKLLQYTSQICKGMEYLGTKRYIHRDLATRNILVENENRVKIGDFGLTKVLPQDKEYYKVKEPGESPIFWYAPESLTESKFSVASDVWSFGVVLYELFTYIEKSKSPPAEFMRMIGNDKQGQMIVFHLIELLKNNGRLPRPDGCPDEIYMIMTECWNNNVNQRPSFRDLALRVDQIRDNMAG
Outline: (§4)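 Activity measured in 50 mM HEPES, 0.01% Brij35, 10 mM MgCl2, 2 mM DTT by microfluidic separation of phosphorylated FAM peptide. Enzyme conditions set for 10% substrate conversion.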

[3] = biological target: T2, JAK1 (Homo sapiens, UniProt P23458); test: JAK1 microfluidic kinase assay (Caliper EZ Reader II, FAM labeled peptide substrate); type: biochemical
T2 construct: purchased Carna Biosciences
T2 sequence (P23458 whole entry): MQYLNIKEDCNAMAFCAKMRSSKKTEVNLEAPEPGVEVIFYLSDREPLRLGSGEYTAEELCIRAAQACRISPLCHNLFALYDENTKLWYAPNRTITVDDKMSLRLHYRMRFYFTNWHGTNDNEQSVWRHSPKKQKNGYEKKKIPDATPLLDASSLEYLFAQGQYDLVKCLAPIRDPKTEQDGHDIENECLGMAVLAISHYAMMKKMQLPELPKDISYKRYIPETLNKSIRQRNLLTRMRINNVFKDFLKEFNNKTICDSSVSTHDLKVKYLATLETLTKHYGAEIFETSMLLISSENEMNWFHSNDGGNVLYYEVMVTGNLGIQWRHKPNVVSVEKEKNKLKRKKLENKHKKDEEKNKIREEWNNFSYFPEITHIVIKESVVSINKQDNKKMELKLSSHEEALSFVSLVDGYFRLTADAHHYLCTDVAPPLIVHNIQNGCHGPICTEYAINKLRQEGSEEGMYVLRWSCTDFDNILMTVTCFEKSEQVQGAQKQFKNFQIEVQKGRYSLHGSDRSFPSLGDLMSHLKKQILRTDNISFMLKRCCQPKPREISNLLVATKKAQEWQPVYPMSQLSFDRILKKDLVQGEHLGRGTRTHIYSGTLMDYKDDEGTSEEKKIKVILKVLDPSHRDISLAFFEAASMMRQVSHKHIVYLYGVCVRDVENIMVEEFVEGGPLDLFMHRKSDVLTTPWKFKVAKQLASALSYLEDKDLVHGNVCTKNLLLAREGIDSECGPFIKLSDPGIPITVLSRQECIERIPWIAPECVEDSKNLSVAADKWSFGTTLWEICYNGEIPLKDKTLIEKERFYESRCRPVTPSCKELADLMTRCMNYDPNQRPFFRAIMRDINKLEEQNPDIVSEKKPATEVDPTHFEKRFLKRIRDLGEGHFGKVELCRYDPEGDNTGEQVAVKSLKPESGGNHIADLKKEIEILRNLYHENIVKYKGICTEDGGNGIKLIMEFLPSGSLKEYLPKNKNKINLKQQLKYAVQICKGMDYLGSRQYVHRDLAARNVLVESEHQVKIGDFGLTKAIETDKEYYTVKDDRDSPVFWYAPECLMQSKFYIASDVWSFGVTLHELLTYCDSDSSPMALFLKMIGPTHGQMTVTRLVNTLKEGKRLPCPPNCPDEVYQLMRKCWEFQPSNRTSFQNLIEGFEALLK
Outline: as §4

[4] = Liver microsomes study, Phase I stability (HLM); type: in vitro ADME, human; settings: pH 7.4
Experimental: as §1, §2, §3

[5] = biological target: T3, JAK2 (Homo sapiens, UniProt O60674); test: JAK2 microfluidic kinase assay (Caliper EZ Reader II, FAM labeled peptide substrate); type: biochemical
T3 construct: purchased Carna Biosciences
T3 sequence (O60674 whole entry): as the sequence (O60674 whole entry V617F) above, with F617V counted along it
Outline: as §4

[6] = biological target: T4, TYK2 (Homo sapiens, UniProt P29597); test: TYK2 microfluidic kinase assay (Caliper EZ Reader II, FAM labeled peptide substrate); type: biochemical
T4 construct: purchased Carna Biosciences
T4 sequence (P29597 whole entry): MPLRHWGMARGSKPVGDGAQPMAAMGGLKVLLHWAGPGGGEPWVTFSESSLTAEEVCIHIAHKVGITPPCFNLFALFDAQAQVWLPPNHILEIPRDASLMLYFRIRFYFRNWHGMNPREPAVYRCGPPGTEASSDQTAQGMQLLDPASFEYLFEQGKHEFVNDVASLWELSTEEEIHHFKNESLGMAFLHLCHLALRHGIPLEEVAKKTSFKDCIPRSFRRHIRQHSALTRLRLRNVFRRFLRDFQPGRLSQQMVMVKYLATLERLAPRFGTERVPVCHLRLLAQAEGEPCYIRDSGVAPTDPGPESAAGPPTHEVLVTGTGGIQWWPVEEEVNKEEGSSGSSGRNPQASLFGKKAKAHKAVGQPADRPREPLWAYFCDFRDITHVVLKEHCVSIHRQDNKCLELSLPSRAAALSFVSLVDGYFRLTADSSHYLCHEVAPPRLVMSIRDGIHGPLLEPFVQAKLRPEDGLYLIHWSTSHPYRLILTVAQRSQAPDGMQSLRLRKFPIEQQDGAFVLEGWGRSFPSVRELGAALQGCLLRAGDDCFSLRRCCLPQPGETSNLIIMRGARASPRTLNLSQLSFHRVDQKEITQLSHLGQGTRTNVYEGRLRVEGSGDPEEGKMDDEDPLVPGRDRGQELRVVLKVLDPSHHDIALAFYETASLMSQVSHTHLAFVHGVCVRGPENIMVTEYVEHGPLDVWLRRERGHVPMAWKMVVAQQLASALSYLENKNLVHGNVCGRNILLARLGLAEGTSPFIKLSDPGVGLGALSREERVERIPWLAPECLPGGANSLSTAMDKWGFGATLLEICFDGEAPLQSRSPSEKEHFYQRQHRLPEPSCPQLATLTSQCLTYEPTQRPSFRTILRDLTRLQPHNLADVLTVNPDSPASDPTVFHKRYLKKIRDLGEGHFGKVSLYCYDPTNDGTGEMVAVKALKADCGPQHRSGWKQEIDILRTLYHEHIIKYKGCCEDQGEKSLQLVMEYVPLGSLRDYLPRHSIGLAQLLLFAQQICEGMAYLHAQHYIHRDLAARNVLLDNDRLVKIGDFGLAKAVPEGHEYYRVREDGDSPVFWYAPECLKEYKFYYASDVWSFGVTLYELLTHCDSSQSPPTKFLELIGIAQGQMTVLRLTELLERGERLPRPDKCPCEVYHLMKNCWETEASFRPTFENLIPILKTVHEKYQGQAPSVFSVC
Experimental: Compounds were tested against JAK1, JAK2, JAK2V617F and TYK2. Assay Formats: JAK activity was determined in the reaction buffer 50 mM HEPES, 0.01% Brij35, 10 mM MgCl2, 2 mM DTT by a microfluidic assay. The phosphorylation of a FAM labeled peptide substrate was monitored in the Caliper EZ Reader II (Perkin Elmer). The assay condition for each batch of enzyme (Carna Biosciences) was optimized to obtain 10% conversion rate of peptide substrate. The test compounds were dissolved in DMSO to a stock concentration of 10 mM. 3-fold serially diluted compounds with top concentration of 5 μM were pre-incubated with JAK1, JAK2, JAK2V617F or TYK2 at indicated concentrations for 10 min at ambient temperature. The final DMSO concentration of assay mixture was 1%. […] The reaction was stopped by adding 50 mM EDTA. The reaction time for JAK1, JAK2, JAK2V617F and TYK2 was 120 min, 20 min, 30 min and 10 min, respectively. […] And the well without compound but with equivalent DMSO was defined as no inhibition. The percent inhibition was calculated by the following formula. % Inhibition=(Conversionmax−Conversionsample)/(Conversionmax−Conversionmin)*100 • Conversionmax means the conversion rate in the positive well without addition of compound • Conversionmin means the conversion rate in the well without addition of enzyme • Conversionsample means the conversion rate of test compounds The dose-response (percent inhibition) curve was plotted and IC50 values were determined by GraphPad software.

[7] = rat liver microsomes 0.5 mg/mL, 1 μM test article, read-out: RLM Clint
[8] = IC50 JAK1 (5 nM) (1 m MATP), JAK1 5 nM, 1 mM ATP
[9] = human liver microsomes 0.5 mg/mL, 1 μM test article, read-out: HLM Clint
[10] = IC50 JAK2 ([…]) (1 mM ATP), 1 mM ATP
[11] = IC50 TYK2 ([…]) (1 mM ATP), TYK2 […], 1 mM ATP
[12] = IC50 JAK2 ([…]) (Km ATP), Km ATP
[13] = IC50 JAK1 (10 nM) (Km ATP), JAK1 10 nM, Km ATP

SMILES	microsomal CLint at 1 μM [1, 7] [µL/min/mg]	IC50 [2] [nM]	IC50 [3, 8] [nM]	microsomal CLint at 1 μM [4, 9] [µL/min/mg]	IC50 [5, 10] [nM]	IC50 [6, 11] [nM]	IC50 [5, 12] [nM]	IC50 ([6]; IC50 TYK2 (10 nM) (Km ATP), TYK2 10 nM, Km ATP) [nM]	IC50 [3, 13] [nM]	microsomal CLint at 1 μM ([1]; rat, microsomes) [µL/min/mg]	microsomal CLint at 1 μM ([4]; human, microsomes) [µL/min/mg]
N#CC1(CNC(=O)c2ccc(-c3nc(Nc4cnn(C5CCOCC5)c4)ncc3Cl)cc2)CC1 [Example 78, 4-(5-Chloro-2-((1-(tetrahydro-2H-pyran-4-yl)-1H-pyrazol-4-yl)amino)pyrimidin-4-yl)-N-((1-cyanocyclopropyl)methyl)benzamide]	47.2	45.3	37.8	30							
Cc1cnc(Nc2cnn(C3CCN(C(=O)C45CC(C4)C5)CC3)c2)nc1-c1ccc(C(=O)NCC#N)cc1 [Example 114, 4-(2-((1-(1-(Bicyclo[1.1.1]pentane-1-carbonyl)piperidin-4-yl)-1H-pyrazol-4-yl)amino)-5-methylpyrimidin-4-yl)-N-(cyanomethyl)benzamide]	93.6		12.5	204							
COCCn1cc(Nc2ncc(Cl)c(-c3ccc(C(=O)N[C@@H](C)C#N)cc3)n2)cn1 [Example 177, (S)-4-(5-chloro-2-((1-(2-methoxyethyl)-1H-pyrazol-4-yl)amino)pyrimidin-4-yl)-N-(1-cyanoethyl)benzamide]		43.9	13.5	38.7	2.74						
Cc1cnc(Nc2cnn(C3CCN(C(=O)C(C)(C)O)CC3)c2)nc1-c1ccc(C(=O)NCC#N)cc1 [Example 51, N-(cyanomethyl)-4-(2-((1-(1-(2-hydroxy-2-methylpropanoyl)piperidin-4-yl)-1H-pyrazol-4-yl)amino)-5-methylpyrimidin-4-yl)benzamide]	17.1	0.51	8.7	33.9							
Cc1cnc(Nc2cnn(C3CCN(C)CC3)c2)nc1-c1ccc(C(=O)N[C@H](C)C#N)cc1 [Example 62, (R)—N-(1-cyanoethyl)-4-(5-methyl-2-((1-(1-methylpiperidin-4-yl)-1H-pyrazol-4-yl)amino)pyrimidin-4-yl)benzamide]			23.1	10.6	71	215					
N#CC1(CNC(=O)c2ccc(-c3nc(Nc4cnn(C5CC5)c4)ncc3Cl)cc2)CC1 [Example 60, 4-(5-Chloro-2-((1-cyclopropyl-1H-pyrazol-4-yl)amino)pyrimidin-4-yl)-N-((1-cyanocyclopropyl)methyl)benzamide]	40.8		15.3	24.6	30.6						
C[C@@H](C#N)NC(=O)c1ccc(-c2nc(Nc3cnn(C4CCN(C(=O)C(C)(C)C)CC4)c3)ncc2Cl)cc1 [Example 99, (S)-4-(5-Chloro-2-((1-(1-pivaloylpiperidin-4-yl)-1H-pyrazol-4-yl)amino)pyrimidin-4-yl)-N-(1-cyanoethyl)benzamide]		1.32	23.6	113							
Cc1cnc(Nc2cnn(C3CC4CCC(C3)N4CC(F)(F)F)c2)nc1-c1ccc(C(=O)NCC#N)cc1 [Example 134, N-(cyanomethyl)-4-(5-methyl-2-((1-((1R,3s,5S)-8-(2,2,2-trifluoroethyl)-8-azabicyclo[3.2.1]octan-3-yl)-1H-pyrazol-4-yl)amino)pyrimidin-4-yl)benzamide]			22.4		10.7					1950	1190

Second part, led by results:

microsomal CLint at 1 μM [1, 7] [µL/min/mg]	IC50 [2] [nM]	IC50 [3, 8] [nM]	microsomal CLint at 1 μM [4, 9] [µL/min/mg]	IC50 [5, 10] [nM]	IC50 [6, 11] [nM]	IC50 [5, 12] [nM]	IC50 ([6]; IC50 TYK2 (10 nM) (Km ATP), TYK2 10 nM, Km ATP) [nM]	IC50 [3, 13] [nM]	SMILES	microsomal CLint at 1 μM ([1]; rat, microsomes) [µL/min/mg]	microsomal CLint at 1 μM ([4]; human, microsomes) [µL/min/mg]
69	4.5	12	14.7						Cc1cnc(Nc2cnn([C@H]3CC[C@H](C#N)CC3)c2)nc1-c1ccc(C(=O)N[C@@H](C)C#N)cc1 [Example 154, 4-(2-((1-(Trans-4-cyanocyclohexyl)-1H-pyrazol-4-yl)amino)-5-methylpyrimidin-4-yl)-N—((S)-1-cyanoethyl)benzamide]		
47.5	131	39.8	16.2						N#CCNC(=O)c1ccc(-c2nc(Nc3cnn(C4CC4)c3)ncc2Cl)cn1 [Example 120, 5-(5-Chloro-2-((1-cyclopropyl-1H-pyrazol-4-yl)amino)pyrimidin-4-yl)-N-(cyanomethyl)picolinamide]		
26.1	67.8	20		30.9	45.2				Cc1cnc(Nc2cnn(C3CC3)c2)nc1-c1ccc(C(=O)NCC#N)nc1 [Example 83, N-(cyanomethyl)-5-(2-((1-cyclopropyl-1H-pyrazol-4-yl)amino)-5-methylpyrimidin-4-yl)picolinamide]		
	1.3	17.8	147						CC(C)(C)C(=O)N1CCC(n2cc(Nc3ncc(Cl)c(-c4ccc(C(=O)NCC#N)cc4)n3)cn2)CC1 [Example 98, 4-(5-Chloro-2-((1-(1-pivaloylpiperidin-4-yl)-1H-pyrazol-4-yl)amino)pyrimidin-4-yl)-N-(cyanomethyl)benzamide]		
	5.11	6.55	19.5	0.54	78.7				CN1CCC(n2cc(Nc3ncc(Cl)c(-c4ccc(C(=O)NCC#N)cc4)n3)cn2)CC1 [Example 44, 4-(5-Chloro-2-((1-(1-methylpiperidin-4-yl)-1H-pyrazol-4-yl)amino)pyrimidin-4-yl)-N-(cyanomethyl)benzamide]		
	3.55	10.9		< 0.25	17.4	< 0.25	0.51	2.22	Cc1cnc(Nc2cnn(C3CCN(C(=O)C(C)(C)C)CC3)c2)nc1-c1ccc(C(=O)NCC#N)cc1 [Example 21, N-(Cyanomethyl)-4-(5-methyl-2-((1-(1-pivaloylpiperidin-4-yl)-1H-pyrazol-4-yl)amino)pyrimidin-4-yl)benzamide]		
8.5		432	10.7	688					C[C@@H](C#N)NC(=O)c1ccc(-c2nc(Nc3cnn(C4CC4)c3)ncc2C(F)F)cc1F [Example 138, (S)—N-(1-cyanoethyl)-4-(2-((1-cyclopropyl-1H-pyrazol-4-yl)amino)-5-(difluoromethyl)pyrimidin-4-yl)-2-fluorobenzamide]		
	115	19.6		46.5	83	1.3		3.32	Cc1cnc(Nc2cnn(C)c2)nc1-c1ccc(C(=O)NCC#N)cc1 [Example 11, N-(cyanomethyl)-4-(5-methyl-2-((1-methyl-1H-pyrazol-4-yl)amino)pyrimidin-4-yl)benzamide]		
	8.91	12.9	22.6						Cc1cnc(Nc2cnn(C3CCOCC3)c2)nc1-c1ccc(C(=O)N[C@@H](C)C(F)(F)F)cc1 [Example 75, (S)-4-(5-Methyl-2-((1-(tetrahydro-2H-pyran-4-yl)-1H-pyrazol-4-yl)amino)pyrimidin-4-yl)-N-(1,1,1-trifluoropropan-2-yl)benzamide]		
